Assay results taken from patent publication US10857112B2, “Small molecule inhibitors of RNA binding motif (RBM) proteins for the treatment of acute cellular injury” (University of Pittsburgh—Of the Commonwealth System of …, priority 2012, dated 2020).

Experiments:
caspase-3 = test: STS-induced caspase-3 (3/7) activity in neurons; assay type: cell-based, rat
Method: The Caspase3/7-GLO assay uses the exact same reagents as the CellTiter-GLO assay accept for the addition of a luciferin substrate crosslinked to an amino acid caspase cleavage target. Activation of caspases frees luciferin. Luciferin can then be oxidized by luciferase, thereby initiating a light reaction. Luminescence was measured using a luminometer.

[1] = tested on: primary rat cortical neurons; test: AQ2S alone on fluorescent and luminescent viability assays (luciferase interference); assay type: cell-based
Method: To test if AQ2S mediated inhibition of caspase3/7 was artifact, the effect of different AQ2S concentrations on 2 different cell viability tests were compared (one test fluorometric and the other luminescent). AQ2S was incubated at the indicated concentrations for 24 hours. After 24 hours, the cell viability reagent was added and cell survival assayed. […] Finally, to replicate the exact experimental conditions used in injury studies, neurons were first incubated with the CellTiter Blue reagent for 2 hours. Subsequently, the viability-GLO reagent was added for 1 hour and luminescence measured (i.e. viability reagents were mixed together; FIG. 11C).

4-HNE = test: Lipid peroxidation (4-HNE western blot) in neurons; assay type: cell-based, rat
Method: To test if AQ2S promotes lipid peroxidation in neurons, at D.I.V. 12, culture media was exchanged with Neurobasal/B27 (−AO) in the absence or presence of […] for 48 hours. D.I.V. 14 neurons were harvested and analyzed for 4-HNE levels.
Injury (e.g. brain ischemia), robustly increases endogenous reactive oxygen species (ROS) levels. ROS may promote the formation of deleterious quinone radicals and increase lipid peroxidation. The potential enhancement by AQ2S of lipid peroxidation induced by 200 μM H2O2 was evaluated. D.I.V. 13 neurons were treated for 4.5 hours with 200 μM H2O2 in fresh neurobasal/B27 (−AO) in the presence or absence of 125 μM AQ2S. 200 μM H2O2 increased 4-HNE levels. The asterisk in FIG. 17b indicates an approximate 40-45 KDa band, particularly, sensitive to treatment.
Neurons used for Western blot analysis for grown in 6-well plates. Briefly, neurons were treated with experimental compounds for the indicated time/conditions. At the end of each experiment, neurons were washed in ice cold PBS and harvested in 65 μL RIPA buffer containing protease inhibitors, phosphatase inhibitors, and EDTA. Extracts were collected in 0.5 mL tubes and sonicated for 20-30 seconds. Cell extracts were then spun at 4° C./16,000 g/10 minutes and stored at −80° C. until use. Frozen extracts were thawed on ice and protein concentration measured using the BCA assay (PIERCE). […]

[2] = tested on: primary rat cortical neurons; test: Ischemia (OGD) injury, neuron viability; assay type: cell-based; conditions: 1 hour OGD; 75 μM during and after injury; 24 hours
Method: AQ2S was dissolved in 100% DMSO (vehicle). Rat cortical neurons were isolated from E17 embryos, and seeded onto 96-well plates at a density of 7.5×10^4/well. At D.I.V. 10-11 culture maintenance media was replaced with treatment media (Modified Eagles Buffered Solution) without or with 25 μM Glucose. In addition, neurons were incubated with or without oxygen (induced by placement of cell plates in an anoxic chamber flushed with a gas mixture to remove oxygen). OGD injury was administered for 1 hour. […] Neuron viability was measured 24 hours post-injury by incubation with CellTiter Blue reagent (PROMEGA) for 3.5 hours. CellTiter Blue is metabolized into a fluorescent reagent only in living cells. The level of fluorescence (expressed as relative fluorescent units; RFU) was measured on a plate reader (PROMEGA).
Primary rat cortical neurons were grown onto 96-well plates. Neurons were injured by a 1 hour treatment with/without 25 μM glucose and with/without oxygen. DMSO or 75 μM AQ2S were added to OGD treatment media during the 1 h ischemic injury period. After 1 hour injury, cells were returned to regular growth media and normoxic culture conditions (i.e. 95% […]/5% CO2) with either DMSO or 75 μM AQ2S. Cell viability was measured 24 hours later and expressed as relative fluorescent units (RFU). […] Data were analyzed by ANOVA (p<0.0001); Fisher LSD post-hoc test. * indicates p<0.05. […]

mice = conditions: intraperitoneal; cited from earlier work
[3] = tested on: primary rat cortical neurons; test: H2O2 injury, neuronal viability 24 h (CellTiter-Blue); conditions: 40 μM H2O2

O=C1c2ccccc2C(=O)c2cc(S(=O)(=O)O)ccc21 [AQ2S, anthraquinone-2-sulfonic acid]
caspase-3 activity (caspase-3; 150 nM STS 24 hours, co-treatment 75 μM): significantly reduced baseline and injury activity levels | STS-induced caspase-3 activation (caspase-3; 250 nM STS 24 hours): completely blocked STS-induced caspase-3 activation | potency among caspase-3, -8 and -9 (caspase-3; 75 μM): greatest potency against caspase-3 | decrease in luminescent signal compared to DMSO controls ([1]; CellTiter Blue and viability-GLO reagents combined): 13-17% | viability, fluorometric CellTiter Blue assay ([1]; compound alone 24 hours, all concentrations used): none of the AQ2S concentrations used inhibited viability below control levels | 4-HNE staining (4-HNE; 200 μM H2O2 4.5 hours, 125 μM): did not significantly up-regulate 4-HNE staining | basal level of 4-HNE (4-HNE; uninjured, 125 AQ2S 48 hours): did not significantly increase the basal level of 4-HNE | viability after ischemic (OGD) injury [2]: significantly increases viability | Acute LD50 (mice): 630 mg/kg | neuronal death after H2O2 injury ([3]; post-treatment 50 μM, 24 h): significantly reduced H2O2 induced cell death | neuronal death after H2O2 injury ([3]; post-treatment 75 μM, 24 h after injury): potently prevented cell death
